System: RNAi-treated eri-1 (mg366) nematodes
Assay: RNAi screening of olfactory receptor genes: chemotaxis assay of RNAi-treated nematodes to odorants
Type: in vivo, Caenorhabditis elegans
Settings: low concentration of attractant
Method in brief: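 Chemotaxis of adult RNAi-fed eri-1 (mg366) nematodes (30–50 per test) was measured toward low (1 μl, 10^−3 or 10^−4 dilution) or high (1 and 5 μl neat) odorant doses. Knockdown: 4 days feeding on E. coli from Ahringer library with IPTG and ampicillin. Differences called by z score at ±1.96, weaker cutoff ±0.96.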

Question: `Cc1nc(C)c(C)s1` [trimethylthiazole] was tested. Which chemotaxis index (Control nematodes) did it give?
Answer: 0.64 ± 0.015

Question: And the chemotaxis index (srh-10 RNAi-treated nematodes)?
Answer: 0.88

Question: What about the chemotaxis index (srh-11 RNAi-treated nematodes) of the same molecule?
Answer: 0.85

Question: And the chemotaxis index (srh-15 RNAi-treated nematodes)?
Answer: 0.91

Question: And the chemotaxis index (srh-16 RNAi-treated nematodes)?
Answer: 0.49

Question: And the chemotaxis index (srh-18 RNAi-treated nematodes)?
Answer: 0.91

Question: What about the chemotaxis index (srh-19 RNAi-treated nematodes) of the same molecule?
Answer: 0.88

Question: And the chemotaxis index (srh-22 RNAi-treated nematodes)?
Answer: 0.75

Question: What about the chemotaxis index (srh-23 RNAi-treated nematodes) of the same molecule?
Answer: 0.78

Question: And the chemotaxis index (srh-24 RNAi-treated nematodes)?
Answer: 0.92

Question: And the chemotaxis index (srh-25 RNAi-treated nematodes)?
Answer: 0.95

Question: And the chemotaxis index (srh-27 RNAi-treated nematodes)?
Answer: 0.71

Question: What about the chemotaxis index (srh-28 RNAi-treated nematodes) of the same molecule?
Answer: 0.92

Question: What about the chemotaxis index (srh-36 RNAi-treated nematodes) of the same molecule?
Answer: 0.51

Question: What about the chemotaxis index (srh-37 RNAi-treated nematodes) of the same molecule?
Answer: 0.87

Question: And the chemotaxis index (srh-39 RNAi-treated nematodes)?
Answer: 0.45

Question: And the chemotaxis index (srh-40 RNAi-treated nematodes)?
Answer: 0.73

Question: And the chemotaxis index (srh-41 RNAi-treated nematodes)?
Answer: 0.85

Question: What about the chemotaxis index (srh-44 RNAi-treated nematodes) of the same molecule?
Answer: 0.90

Question: And the chemotaxis index (srh-45 RNAi-treated nematodes)?
Answer: 0.73

Question: What about the chemotaxis index (srh-46 RNAi-treated nematodes) of the same molecule?
Answer: 0.83

Question: What about the chemotaxis index (srh-48 RNAi-treated nematodes) of the same molecule?
Answer: 0.65

Question: And the chemotaxis index (srh-49 RNAi-treated nematodes)?
Answer: 0.59

Question: What about the chemotaxis index (srh-50 RNAi-treated nematodes) of the same molecule?
Answer: 0.84

Question: What about the chemotaxis index (srh-51 RNAi-treated nematodes) of the same molecule?
Answer: 0.64

Question: What about the chemotaxis index (srh-52 RNAi-treated nematodes) of the same molecule?
Answer: 0.55

Question: And the chemotaxis index (srh-55 RNAi-treated nematodes)?
Answer: 0.56

Question: And the chemotaxis index (srh-59 RNAi-treated nematodes)?
Answer: 0.37

Question: And the chemotaxis index (srh-60 RNAi-treated nematodes)?
Answer: 0.79

Question: What about the chemotaxis index (srh-61 RNAi-treated nematodes) of the same molecule?
Answer: 0.70

Question: And the chemotaxis index (srh-67 RNAi-treated nematodes)?
Answer: 0.63

Question: And the chemotaxis index (srh-68 RNAi-treated nematodes)?
Answer: 0.57

Question: And the chemotaxis index (srh-69 RNAi-treated nematodes)?
Answer: 0.75

Question: And the chemotaxis index (srh-70 RNAi-treated nematodes)?
Answer: 0.78

Question: What about the chemotaxis index (srh-71 RNAi-treated nematodes) of the same molecule?
Answer: 0.85

Question: What about the chemotaxis index (srh-72 RNAi-treated nematodes) of the same molecule?
Answer: 0.58

Question: What about the chemotaxis index (srh-74 RNAi-treated nematodes) of the same molecule?
Answer: 0.44

Question: And the chemotaxis index (srh-75 RNAi-treated nematodes)?
Answer: 0.54

Question: What about the chemotaxis index (srh-77 RNAi-treated nematodes) of the same molecule?
Answer: 0.52

Question: And the chemotaxis index (srh-79 RNAi-treated nematodes)?
Answer: 0.42

Question: What about the chemotaxis index (srh-80 RNAi-treated nematodes) of the same molecule?
Answer: 0.39

Question: And the chemotaxis index (srh-82 RNAi-treated nematodes)?
Answer: 0.71

Question: What about the chemotaxis index (srh-83 RNAi-treated nematodes) of the same molecule?
Answer: 0.86

Question: And the chemotaxis index (srh-97 RNAi-treated nematodes)?
Answer: 0.77

Question: And the chemotaxis index (srh-99 RNAi-treated nematodes)?
Answer: 0.65

Question: What about the chemotaxis index (srh-100 RNAi-treated nematodes) of the same molecule?
Answer: 0.62

Question: What about the chemotaxis index (srh-104 RNAi-treated nematodes) of the same molecule?
Answer: 0.65

Question: And the chemotaxis index (srh-105 RNAi-treated nematodes)?
Answer: 0.66

Question: What about the chemotaxis index (srh-109 RNAi-treated nematodes) of the same molecule?
Answer: 0.76

Question: And the chemotaxis index (srh-111 RNAi-treated nematodes)?
Answer: 0.37

Question: And the chemotaxis index (srh-113 RNAi-treated nematodes)?
Answer: 0.83

Question: And the chemotaxis index (srh-115 RNAi-treated nematodes)?
Answer: 0.47

Question: What about the chemotaxis index (srh-116 RNAi-treated nematodes) of the same molecule?
Answer: 0.56

Question: What about the chemotaxis index (srh-118 RNAi-treated nematodes) of the same molecule?
Answer: 0.73

Question: What about the chemotaxis index (srh-119 RNAi-treated nematodes) of the same molecule?
Answer: 0.71

Question: What about the chemotaxis index (srh-120 RNAi-treated nematodes) of the same molecule?
Answer: 0.72

Question: And the chemotaxis index (srh-122 RNAi-treated nematodes)?
Answer: 0.44

Question: And the chemotaxis index (srh-123 RNAi-treated nematodes)?
Answer: 0.56

Question: And the chemotaxis index (srh-125 RNAi-treated nematodes)?
Answer: 0.70

Question: And the chemotaxis index (srh-128 RNAi-treated nematodes)?
Answer: 0.62

Question: What about the chemotaxis index (srh-129 RNAi-treated nematodes) of the same molecule?
Answer: 0.69

Question: What about the chemotaxis index (srh-130 RNAi-treated nematodes) of the same molecule?
Answer: 0.70

Question: And the chemotaxis index (srh-214 RNAi-treated nematodes)?
Answer: 0.78

Question: What about the chemotaxis index (srh-216 RNAi-treated nematodes) of the same molecule?
Answer: 0.73

Question: And the chemotaxis index (srh-217 RNAi-treated nematodes)?
Answer: 0.60

Question: And the chemotaxis index (srh-220 RNAi-treated nematodes)?
Answer: 0.52

Question: What about the chemotaxis index (srh-222 RNAi-treated nematodes) of the same molecule?
Answer: 0.58

Question: And the chemotaxis index (srh-223 RNAi-treated nematodes)?
Answer: 0.76

Question: What about the chemotaxis index (srh-227 RNAi-treated nematodes) of the same molecule?
Answer: 0.76

Question: What about the chemotaxis index (srh-229 RNAi-treated nematodes) of the same molecule?
Answer: 0.69

Question: And the chemotaxis index (srh-233 RNAi-treated nematodes)?
Answer: 0.38

Question: What about the chemotaxis index (srh-235 RNAi-treated nematodes) of the same molecule?
Answer: 0.58

Question: And the chemotaxis index (srh-236 RNAi-treated nematodes)?
Answer: 0.64

Question: What about the chemotaxis index (srh-239 RNAi-treated nematodes) of the same molecule?
Answer: 0.84

Question: What about the chemotaxis index (srh-241 RNAi-treated nematodes) of the same molecule?
Answer: 0.85

Question: And the chemotaxis index (srh-243 RNAi-treated nematodes)?
Answer: 0.63

Question: And the chemotaxis index (srh-244 RNAi-treated nematodes)?
Answer: 0.76

Question: What about the chemotaxis index (srh-247 RNAi-treated nematodes) of the same molecule?
Answer: 0.54

Question: And the chemotaxis index (srh-250 RNAi-treated nematodes)?
Answer: 0.58

Question: And the chemotaxis index (srh-251 RNAi-treated nematodes)?
Answer: 0.64

Question: And the chemotaxis index (srh-252 RNAi-treated nematodes)?
Answer: 0.64

Question: What about the chemotaxis index (srh-258 RNAi-treated nematodes) of the same molecule?
Answer: 0.75

Question: And the chemotaxis index (srh-261 RNAi-treated nematodes)?
Answer: 0.72

Question: What about the chemotaxis index (srh-264 RNAi-treated nematodes) of the same molecule?
Answer: 0.74

Question: And the chemotaxis index (srh-266 RNAi-treated nematodes)?
Answer: 0.25

Question: What about the chemotaxis index (srh-274 RNAi-treated nematodes) of the same molecule?
Answer: 0.60

Question: What about the chemotaxis index (srh-275 RNAi-treated nematodes) of the same molecule?
Answer: 0.53

Question: And the chemotaxis index (srh-276 RNAi-treated nematodes)?
Answer: 0.59

Question: What about the chemotaxis index (srh-277 RNAi-treated nematodes) of the same molecule?
Answer: 0.65

Question: And the chemotaxis index (srh-279 RNAi-treated nematodes)?
Answer: 0.61

Question: What about the chemotaxis index (srh-281 RNAi-treated nematodes) of the same molecule?
Answer: 0.55

Question: And the chemotaxis index (srh-282 RNAi-treated nematodes)?
Answer: 0.79

Question: And the chemotaxis index (srh-283 RNAi-treated nematodes)?
Answer: 0.56

Question: And the chemotaxis index (srh-284 RNAi-treated nematodes)?
Answer: 0.59

Question: And the chemotaxis index (srh-291 RNAi-treated nematodes)?
Answer: 0.91

Question: What about the chemotaxis index (srh-292 RNAi-treated nematodes) of the same molecule?
Answer: 0.78

Question: What about the chemotaxis index (srh-293 RNAi-treated nematodes) of the same molecule?
Answer: 0.82

Question: What about the chemotaxis index (srh-297 RNAi-treated nematodes) of the same molecule?
Answer: 0.56

Question: What about the chemotaxis index (srh-298 RNAi-treated nematodes) of the same molecule?
Answer: 0.82

Question: And the chemotaxis index (srh-308 RNAi-treated nematodes)?
Answer: 0.30

Reference: patent US12493040B2, “Cancer detection method using sense of smell of nematode” (HIROTSU BIO SCIENCE INC., priority 2013, dated 2025)
